{"source": "paper PMC10746543", "about": "“Design principles for cyclin K molecular glue degraders” (Nature Chemical Biology, 2023)", "target": "CDK12–cyclin K (Homo sapiens, UniProt Q9NYV4)", "sequence (Q9NYV4 713-1052)": "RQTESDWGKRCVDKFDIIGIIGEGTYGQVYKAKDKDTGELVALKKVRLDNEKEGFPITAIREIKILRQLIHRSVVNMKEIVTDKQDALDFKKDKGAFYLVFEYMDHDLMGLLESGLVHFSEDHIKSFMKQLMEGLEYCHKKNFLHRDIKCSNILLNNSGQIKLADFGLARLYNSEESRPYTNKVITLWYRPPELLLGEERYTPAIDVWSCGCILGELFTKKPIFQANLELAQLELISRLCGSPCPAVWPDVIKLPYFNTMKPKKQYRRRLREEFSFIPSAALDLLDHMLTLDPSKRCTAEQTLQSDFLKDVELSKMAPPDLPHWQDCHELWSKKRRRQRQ", "sequence (O75909 1-267 partner limits assumed)": "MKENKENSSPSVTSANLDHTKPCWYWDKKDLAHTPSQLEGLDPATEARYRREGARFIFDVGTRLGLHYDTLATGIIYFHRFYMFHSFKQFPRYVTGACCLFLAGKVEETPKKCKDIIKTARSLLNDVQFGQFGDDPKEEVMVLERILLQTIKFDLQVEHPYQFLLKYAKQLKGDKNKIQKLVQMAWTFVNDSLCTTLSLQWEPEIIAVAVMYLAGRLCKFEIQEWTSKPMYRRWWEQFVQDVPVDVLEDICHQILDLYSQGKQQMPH", "test": "Lanthascreen kinase binding assay, CDK12", "settings": "for Lanthascreen raw signal, sheet CDK12: duplicates", "protocol": "Lanthascreen experiments were performed using commercially available reagents (Thermo Fisher) and according to the manufacturer’s instructions.", "note": "Values joined by “and” are separate entries in the source; they are usually repeats but may differ in a detail not shown here. Identical values can stand only once."}
{"smiles": "Cc1ccc(C(=O)N2CSCC2C(=O)Nc2ncc(C)s2)o1", "note": "(stereo not drawn) [dCeMM4]", "values": [{"measurement": "IC50", "setting": "Supplementary Table 2, read-out: Lanthascreen IC50 [nM] CDK12", "result": 6550, "unit": "nM"}, {"measurement": "Lanthascreen raw signal, sheet CDK12", "setting": "compound 0.038147 nM, series r13", "result": "0.01232 and 0.01243"}, {"measurement": "Lanthascreen raw signal, sheet CDK12", "setting": "compound 0.038147 nM, series r49", "result": "0.008613 and 0.007971"}, {"measurement": "Lanthascreen raw signal, sheet CDK12", "setting": "compound 0.152588 nM, series r13", "result": "0.01076 and 0.01116"}, {"measurement": "Lanthascreen raw signal, sheet CDK12", "setting": "compound 0.152588 nM, series r49", "result": "0.01012 and 0.009882"}, {"measurement": "Lanthascreen raw signal, sheet CDK12", "setting": "compound 0.610352 nM, series r13", "result": "0.0114 and 0.01052"}, {"measurement": "Lanthascreen raw signal, sheet CDK12", "setting": "compound 0.610352 nM, series r49", "result": "0.009497 and 0.01011"}, {"measurement": "Lanthascreen raw signal, sheet CDK12", "setting": "compound 1.02544 nM, series r1", "result": "0.009042 and 0.01099"}, {"measurement": "Lanthascreen raw signal, sheet CDK12", "setting": "compound 3.15521 nM, series r1", "result": "0.01068 and 0.009679"}, {"measurement": "Lanthascreen raw signal, sheet CDK12", "setting": "compound 9.46563 nM, series r1", "result": "0.009286 and 0.009664"}, {"measurement": "Lanthascreen raw signal, sheet CDK12", "setting": "compound 9.76563 nM, series r13", "result": "0.01092 and 0.01022"}, {"measurement": "Lanthascreen raw signal, sheet CDK12", "setting": "compound 9.76563 nM, series r49", "result": "0.01048 and 0.01041"}, {"measurement": "Lanthascreen raw signal, sheet CDK12", "setting": "compound 31.5521 nM, series r1", "result": "0.009025 and 0.009021"}, {"measurement": "Lanthascreen raw signal, sheet CDK12", "setting": "compound 39.0625 nM, series r13", "result": "0.01118 and 0.01016"}, {"measurement": "Lanthascreen raw signal, sheet CDK12", "setting": "compound 39.0625 nM, series r49", "result": "0.009518 and 0.009698"}, {"measurement": "Lanthascreen raw signal, sheet CDK12", "setting": "compound 99.3891 nM, series r1", "result": "0.008619 and 0.008828"}, {"measurement": "Lanthascreen raw signal, sheet CDK12", "setting": "compound 156.25 nM, series r13", "result": "0.01038 and 0.009956"}, {"measurement": "Lanthascreen raw signal, sheet CDK12", "setting": "compound 156.25 nM, series r49", "result": "0.009802 and 0.01107"}, {"measurement": "Lanthascreen raw signal, sheet CDK12", "setting": "compound 315.521 nM, series r1", "result": "0.009446 and 0.008194"}, {"measurement": "Lanthascreen raw signal, sheet CDK12", "setting": "compound 625 nM, series r13", "result": "0.01123 and 0.01103"}, {"measurement": "Lanthascreen raw signal, sheet CDK12", "setting": "compound 625 nM, series r49", "result": "0.008992 and 0.00907"}, {"measurement": "Lanthascreen raw signal, sheet CDK12", "setting": "compound 2500 nM, series r13", "result": "0.01034 and 0.009721"}, {"measurement": "Lanthascreen raw signal, sheet CDK12", "setting": "compound 2500 nM, series r49", "result": "0.009117 and 0.008384"}, {"measurement": "Lanthascreen raw signal, sheet CDK12", "setting": "compound 3155.21 nM, series r1", "result": "0.008559 and 0.007567"}, {"measurement": "Lanthascreen raw signal, sheet CDK12", "setting": "compound 10000 nM, series r13", "result": 0.008264}, {"measurement": "Lanthascreen raw signal, sheet CDK12", "setting": "compound 10000 nM, series r49", "result": "0.007507 and 0.007835"}, {"measurement": "Lanthascreen raw signal, sheet CDK12", "setting": "compound 10002 nM, series r1", "result": "0.008529 and 0.007315"}]}
